Results from ChEMBL document CHEMBL6120947, “Synthesis and Antiosteoporotic Characterization of Diselenyl Maleimides: Discovery of a Potent Agent for the Treatment of Osteoporosis by Targeting RANKL” (J Med Chem, 2024).
Active and inactive are the calls of the source. No cut-off for these calls is given here.

How the values were obtained:
MC3T3-E1 [1] = experiment: Effect on osteoblast differentiation in mouse MC3T3-E1 cells assessed as change in BMP2 level at 0.5 to 2 uM incubated for 7 days by Western blot analysis; type: functional, cell-based; conditions: dose 0.5-2 µM, time 7.0 day
BMDM [2] = experiment: Inhibition of osteoclastogenesis in M-CSF/RANKL-induced osteoclast differentiation in C57BL/6J mouse BMDM cells assessed as reduction in cathepsin K mRNA level measured after 5 days by qRT-PCR analysis; type: functional, cell-based; conditions: dose <= 2.0 µM, time 5.0 day
BMDM [3] = experiment: Inhibition of osteoclastogenesis in M-CSF/RANKL-induced osteoclast differentiation in C57BL/6J mouse BMDM cells assessed as decrease in c-Fos level at 1 uM measured for 5 days by Western blot analysis; type: functional, cell-based; conditions: time 5.0 day
BMDM [4] = experiment: Inhibition of osteoclastogenesis in M-CSF/RANKL-induced osteoclast differentiation in C57BL/6J mouse BMDM cells assessed as suppression of multinucleated osteoclasts formation incubated for 6 days by TRAP staining based analysis; type: functional, cell-based
[5] = biological target: T1, Tumor necrosis factor ligand superfamily member 11 (Homo sapiens, UniProt O14788); experiment: Binding affinity to CM5 sensor chip-immobilized RANKL (unknown origin) assessed as dissociation constant by SPR analysis
T1 sequence (O14788 whole entry): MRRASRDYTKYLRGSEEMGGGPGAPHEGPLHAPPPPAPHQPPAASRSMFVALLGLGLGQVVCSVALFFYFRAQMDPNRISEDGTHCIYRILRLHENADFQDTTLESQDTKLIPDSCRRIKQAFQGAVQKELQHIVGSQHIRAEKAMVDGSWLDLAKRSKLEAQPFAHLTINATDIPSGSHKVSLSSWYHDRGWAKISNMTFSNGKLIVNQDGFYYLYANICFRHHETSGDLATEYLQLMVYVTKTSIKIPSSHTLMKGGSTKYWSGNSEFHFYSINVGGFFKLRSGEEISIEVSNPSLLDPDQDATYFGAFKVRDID

BMDM [6] = experiment: Inhibition of osteoclastogenesis in M-CSF/RANKL-induced osteoclast differentiation in C57BL/6J mouse BMDM cells assessed as decrease in NFATc1 level at 1 uM measured for 5 days by Western blot analysis; type: functional, cell-based; conditions: time 5.0 day
Mus musculus [7] = experiment: Anti-osteoporosis effect in OVX-induced osteoporosis C57BL/6 mouse model assessed as improvement of bone surface in femur at 10 mg/kg, po administered every other day for 8 weeks by H and E staining based analysis; type: functional, organism-based
BMDM [8] = experiment: Inhibition of osteoclastogenesis in M-CSF/RANKL-induced osteoclast differentiation in C57BL/6J mouse BMDM cells assessed as reduction in I-kappaB-alpha phosphorylation at 1 uM measured upto 60 mins by Western blot analysis; type: functional, cell-based
[9] = biological target: T2, Tumor necrosis factor ligand superfamily member 11 (Homo sapiens) (UniProt O14788); experiment: Binding affinity to RANKL (unknown origin) incubated for 15 mins by RED-NHS dye based MST assay
T2 sequence (whole entry): T1 sequence (O14788 whole entry)

BMDM [10] = experiment: Inhibition of osteoclastogenesis in M-CSF/RANKL-induced osteoclast differentiation in C57BL/6J mouse BMDM cells assessed as reduction in MMP-9 mRNA level measured after 5 days by qRT-PCR analysis; type: functional, cell-based; conditions: dose <= 2.0 µM, time 5.0 day
BMDM [11] = experiment: Inhibition of osteoclastogenesis in M-CSF/RANKL-induced osteoclast differentiation in C57BL/6J mouse BMDM cells assessed as reduction in TRAP mRNA level measured after 5 days by qRT-PCR analysis; type: functional, cell-based; conditions: dose <= 2.0 µM, time 5.0 day
[12] = Toxicity in OVX-induced osteoporosis C57BL/6 mouse model assessed as pathological change in spleen at 10 mg/kg, po administered every other day for 8 weeks by H and E staining based analysis; type: organism-based; conditions: in vivo, 1344 h
MC3T3-E1 [13] = experiment: Effect on osteoblast mineralization in mouse MC3T3-E1 cells assessed as change in calcium nodules at 0.5 to 2 uM incubated for 7 days by ARS staining based analysis; type: functional, cell-based; conditions: dose 0.5-2 µM, time 7.0 day
[14] = Toxicity in OVX-induced osteoporosis C57BL/6 mouse model assessed as adverse event at 10 mg/kg, po administered every other day for 8 weeks; type: organism-based; conditions: in vivo, 1344 h
MC3T3-E1 [15] = experiment: Effect on osteoblast differentiation in mouse MC3T3-E1 cells assessed as change in ALP mRNA level at 0.5 to 2 uM incubated for 7 days by qRT-PCR analysis; type: functional, cell-based; conditions: dose 0.5-2 µM, time 7.0 day
Mus musculus [16] = experiment: Anti-osteoporosis effect in OVX-induced osteoporosis C57BL/6 mouse model assessed as increase in Tb.Th value at 10 mg/kg, po administered every other day for 8 weeks by micro-CT analysis; type: functional, organism-based
MC3T3-E1 [17] = experiment: Effect on osteoblast differentiation in mouse MC3T3-E1 cells assessed as change in collagen I level at 0.5 to 2 uM incubated for 7 days by Western blot analysis; type: functional, cell-based; conditions: dose 0.5-2 µM, time 7.0 day
BMDM [18] = experiment: Inhibition of osteoclastogenesis in M-CSF/RANKL-induced osteoclast differentiation in C57BL/6J mouse BMDM cells assessed as reduction in NFATc1 level measured after 5 days by Western blot analysis; type: functional, cell-based; conditions: dose <= 2.0 µM, time 5.0 day
BMDM [19] = experiment: Inhibition of osteoclastogenesis in M-CSF/RANKL-induced osteoclast differentiation in C57BL/6J mouse BMDM cells assessed as reduction in p65 phosphorylation at 1 uM measured upto 60 mins by Western blot analysis; type: functional, cell-based
BMDM [20] = experiment: Inhibition of osteoclastogenesis in M-CSF/RANKL-induced osteoclast differentiation in C57BL/6J mouse BMDM cells assessed as reduction in c-Fos mRNA level measured after 5 days by qRT-PCR analysis; type: functional, cell-based; conditions: dose <= 2.0 µM, time 5.0 day
BMDM [21] = experiment: Inhibition of osteoclastogenesis in M-CSF/RANKL-induced osteoclast differentiation in C57BL/6J mouse BMDM cells assessed as reduction in c-Fos level measured after 5 days by Western blot analysis; type: functional, cell-based; conditions: dose <= 2.0 µM, time 5.0 day
BMDM [22] = experiment: Inhibition of osteoclastogenesis in M-CSF/RANKL-induced osteoclast differentiation in C57BL/6J mouse BMDM cells assessed as decrease in NFATc1 mRNA level at 1 uM measured for 5 days by qRT-PCR analysis; type: functional, cell-based; conditions: time 5.0 day
Mus musculus [23] = experiment: Anti-osteoporosis effect in OVX-induced osteoporosis C57BL/6 mouse model assessed as decrease in Tb.Sp value at 10 mg/kg, po administered every other day for 8 weeks by micro-CT analysis; type: functional, organism-based
MC3T3-E1 [24] = experiment: Effect on osteoblast differentiation in mouse MC3T3-E1 cells assessed as change in Runx2 mRNA level at 0.5 to 2 uM incubated for 7 days by qRT-PCR analysis; type: functional, cell-based; conditions: dose 0.5-2 µM, time 7.0 day
BMDM [25] = experiment: Inhibition of osteoclastogenesis in M-CSF/RANKL-induced osteoclast differentiation in C57BL/6J mouse BMDM cells assessed as suppression of osteoclast size measured after 7 days by F-actin ring-TRITC phalloidin staining based analysis; type: functional, cell-based; conditions: dose <= 2.0 µM, time 7.0 day
BMDM [26] = experiment: Inhibition of osteoclastogenesis in M-CSF/RANKL-induced osteoclast differentiation in C57BL/6J mouse BMDM cells assessed as reduction in ERK phosphorylation at 1 uM measured upto 60 mins by Western blot analysis; type: functional, cell-based
BMDM [27] = experiment: Inhibition of osteoclastogenesis in M-CSF/RANKL-induced osteoclast differentiation in C57BL/6J mouse BMDM cells assessed as reduction in MMP-9 level measured after 5 days by Western blot analysis; type: functional, cell-based; conditions: dose <= 2.0 µM, time 5.0 day
MC3T3-E1 [28] = experiment: Cytotoxicity against mouse MC3T3-E1 cells at 0.5 to 2 uM incubated for 7 days by MTT assay; type: toxicity, cell-based; conditions: mc3t3-e1, 168 h, dose 0.5-2 µM, time 7 day

## O=C1C([Se]c2ccccc2)=C([Se]c2ccccc2)C(=O)N1Cc1ccccc1
MC3T3-E1 [1]
  Activity: No effect
BMDM [2]
  inhibition: Dose-dependent-effect
BMDM [3]
  inhibition: Active
BMDM [4]; 144 h
  IC50: 360 nM
BMDM [4]; dose <= 2.0 µM, time 6.0 day
  inhibition: Dose-dependent-effect
[5]
  Kd: 920 nM
BMDM [6]
  inhibition: Active
Mus musculus [7]
  Activity: Active; Displayed Similar Effect With That Exhibited By Alendronate
BMDM [8]
  inhibition: Active
[9]
  Activity: 1.51 µM
BMDM [10]
  inhibition: Dose-dependent-effect
BMDM [11]
  inhibition: Dose-dependent-effect
[12]
  Activity: Non-toxic
MC3T3-E1 [13]
  Activity: No effect
[14]
  Activity: Non-toxic
MC3T3-E1 [15]
  Activity: No effect
Mus musculus [16]
  Activity: Active; Displayed Similar Effect With That Exhibited By Alendronate
MC3T3-E1 [17]
  Activity: No effect
BMDM [18]
  inhibition: Dose-dependent-effect
BMDM [19]
  inhibition: Active
BMDM [20]
  inhibition: Dose-dependent-effect
BMDM [21]
  inhibition: Dose-dependent-effect
BMDM [22]
  inhibition: Active
Mus musculus [23]
  Activity: Active; Displayed Similar Effect With That Exhibited By Alendronate
MC3T3-E1 [24]
  Activity: No effect
BMDM [25]
  inhibition: Dose-dependent-effect
BMDM [26]
  inhibition: Active
BMDM [27]
  inhibition: Dose-dependent-effect
MC3T3-E1 [28]
  Activity: Non-toxic
